Values quoted from earlier work in patent publication US20230079706A1, “Solid Cleansing Compositions and Methods for the Same” (Colgate-Palmolive Company, priority 2021, published 2023).

System: melanin
Conditions: personal care compositions with lower than 2.0 wt % Kojic acid

O=c1cc(CO)occ1O [Kojic acid, 5-Hydroxy-2-(hydroxymethyl)-4H-pyran-4-one]
Efficacy in the reduction of melanin and/or the inhibition of melanin production: poor to no efficacy
